Assay results published in patent publication US20040072846A1, “Pharmaceutical formulation containing thienopyrimidines and antithrombotics, calcium antagonists, prostaglandins or prostaglandin derivatives” (priority 2000, published 2004).

Compound: COc1ccc(CNc2nc(CCC(=O)O)nc3sc4c(c23)CCCC4)cc1Cl [Example 2, 3-[4-(3-chloro-4-methoxybenzylamino)-5,6,7,8-tetrahydro-[1]-benzothieno-[2,3-d]-pyrimidin-2-yl]propionic acid]
- melting point: 229 °C
